In patent US20120022142A1, “RNA Interference Mediated Inhibition of Signal Transducer and Activator of Transcription 1 (STAT1) Gene Expression Using Short Interfering Nucleic Acid (siNA)” (Merck Sharp & Dohme Corp., priority 2009, published 2012):
[invAb] = inverted abasic unit; d = 2'-deoxy (DNA); m = 2'-O-methyl; r = 2'-OH (RNA); f = 2'-fluoro

Experiments:
[1] = test system: STAT1 human mRNA; assay: Initial screen of siNAs: STAT1 mRNA knock-down in A549 cells (96-well transfection, Taqman RT-PCR); type: cell-based; conditions: 10 nM siNA, 24 hrs, normalized against GAPDH, average of 2 experiments
Experimental: A549 (human; ATCC cat# CCL-185): Cells were cultured at 37° C. in the presence of 5% CO2 and grown in Ham's F12K medium with 2 mM L-glutamine adjusted to contain 1.5 g/L sodium bicarbonate and supplemented with fetal bovine serum at a final concentration of 10% and 100 μg/mL of streptomycin and 100 U/mL penicillin.
(§1) Cells were plated in all wells of a tissue-culture treated, 96-well plate at a final count of 5000 cells/well in 100 μL of the appropriate culture media. The cells were cultured for 24 hours after plating at 37° C. in the presence of 5% CO2.
(§2) After 24 hours, complexes containing siNA and RNAiMax were created as follows: A solution of RNAiMax diluted 33-fold in OPTI-MEM was prepared. In parallel, solutions of the siNAs for testing were prepared to a final concentration of 120 nM in OPTI-MEM. After incubation of RNAiMax/OPTI-MEM solution at room temperature for 5 min, an equal volume of the siNA solution and the RNAiMax solution were added together for each of the siNAs.
(§3) This solution was incubated at room temperature for 20 minutes. After incubation, 20 uL of the solution was added to each of the relevant wells. The final concentration of siNA in each well was 10 nM and the final volume of RNAiMax in each well was 0.3 ul.
(§4) The time of incubation with the RNAiMax-siNA complexes was 24 hours and there was no change in media between transfection and harvesting, unless otherwise indicated.
(§5) RNA was extracted from a 96-well plate using the TaqMan® Gene Expression Cells-to-CT™ Kit (Cat# 4399002) with a modified protocol. Briefly, a 60 uL (1 plate) or 110 uL (2 plates) of the Lysis Solution with DNase I was dispensed into each well of the Lysis Buffer Plate (twin.tec full skirt plate). The lysis buffer and stop plates were stored at 4° C. until the cells were washed.
(§6) The culture medium was aspirated and discarded from the wells of the culture plate. 50 uL of chilled DPBS was added to each well, then aspirated and discarded. The lysis was performed automatically using a BioMek FX instrument and method. After the Biomek method was completed, the lysis plate was incubated for 2 min at room temperature. The lysis plate can be stored for 2 hours at 4° C., or at −20° C. or −80° C. for two months.
(§7) Each well of the reverse transcription plate required 10 uL of 2× reverse transcriptase Buffer, 1 uL of 20× reverse transcription enzyme and 2 uL of nuclease-free water. The reverse transcription master mix was prepared by mixing 2× reverse transcription buffer, 20× reverse transcription enzyme mix, and nuclease-free water. 13 uL of the reverse transcription master mix was dispensed into each well of the reverse transcription plate (semi-skirted). A separate reverse transcription plate was prepared for each cell plate. The plate was loaded onto a Biomek NX or Biomek FX Dual-96 and the Biomek method was run. The program is programmed to automatically added 7 uL of lysate from the cell lysis procedure described above into each well of the reverse transcription plate. The plate is sealed and spun on a centrifuge (1000 rpm for 30 seconds) to settle the contents to the bottom of the reverse transcription plate. The plate is placed in a thermocycler at 37° C. for 60 min, 95° C. for 5 min, and 4° C. until the plate is removed from the thermocycler. Upon removal, if not used immediately, the plate was frozen at −20° C.
(§8) A series of probes and primers were used to detect the various mRNA transcripts of the genes of β-Actin (human cell line only), and of STAT1 and GAPDH in mouse and human cell lines. All Taqman probes and primers for the experiments here-in described were supplied as pre-validated sets by Applied Biosystems, Inc. (see Table 2).
The assays were performed on an ABI 7900 instrument, according to the manufacturer's instructions.
Within each experiment, the baseline was set in the exponential phase of the amplification curve, and based on the intersection point of the baselines with the amplification curve, a Ct value was assigned by the instrument. […]

[2] = test system: STAT1 mouse mRNA; assay: Initial screen of siNAs: STAT1 mRNA knock-down in NIH 3T3 cells (96-well transfection, Taqman RT-PCR); type: cell-based; conditions: 10 nM siNA, 24 hrs, normalized against GAPDH, average of 2 experiments
Experimental: NIH 3T3 (mouse; ATCC cat# CRL-1658): Cells were cultured at 37° C. in the presence of 5% CO2 and grown in Dulbecco's modified Eagle's medium (DMEM) with 4 mM L-glutamine adjusted to contain 1.5 g/L sodium bicarbonate and 4.5 g/L glucose and supplemented with fetal bovine serum at a final concentration of 10%, 100 μg/mL of streptomycin, and 100 U/mL penicillin.
as §1, §2, §3, §4, §5, §6, §7, §8
The assays were performed on an ABI 7900 instrument, according to the manufacturer's instructions. […]

25360-DC: STAT1 siNA duplex, human target site 1793; modified strands SEQ ID NO: 57 and 58 (chain 1 CCAGGAAUCUGUCCUUCUUTT; chain 2 AAGAAGGACAGAUUCCUGGUU; chain 1: DNA at AGT, 2'-fluoro at CU, [invAb] at 5' end, 3' end, backbone not given here; chain 2: sugars from the 5' end rrrmmmmmfmmmfffffmmmm, backbone not given here)
% KD Human [1]: 90%
% KD Mouse [2]: 73%

25347-DC: STAT1 siNA duplex, human target site 2318; modified strands SEQ ID NO: 31 and 32 (chain 1 CUGAGAAUAUUCCUGAGAATT; chain 2 UUCUCAGGAAUAUUCUCAGUU; chain 1: DNA at AGT, 2'-fluoro at CU, [invAb] at 5' end, 3' end, backbone not given here; chain 2: sugars from the 5' end rrrffmmmmmfmfffffmmmm, backbone not given here)
% KD Human [1]: 93%
% KD Mouse [2]: 57%

25354-DC: STAT1 siNA duplex, human target site 678; modified strands SEQ ID NO: 45 and 46 (chain 1 GAAGGAAGAAAGGAAAAUUTT; chain 2 AAUUUUCCUUUCUUCCUUCUU; chain 1: sugars from the 5' end d17 f2 d2, [invAb] at 5' end, 3' end, backbone not given here; chain 2: sugars from the 5' end r3 f16 m2, backbone not given here)
% KD Human [1]: 91%
% KD Mouse [2]: 80%

25373-DC: STAT1 siNA duplex, human target site 2160; modified strands SEQ ID NO: 83 and 84 (chain 1 CAGUGAGAGCUCCCGGGAATT; chain 2 UUCCCGGGAGCUCUCACUGUU; chain 1: DNA at AGT, 2'-fluoro at CU, [invAb] at 5' end, 3' end, backbone not given here; chain 2: sugars from the 5' end rrrffmmmmmfffffmffmmm, backbone not given here)
% KD Human [1]: 30%
% KD Mouse [2]: 24%

25363-DC: STAT1 siNA duplex, human target site 480; modified strands SEQ ID NO: 63 and 64 (chain 1 GGAGCACGCUGCCAAUGAUTT; chain 2 AUCAUUGGCAGCGUGCUCCUU; chain 1: DNA at AGT, 2'-fluoro at CU, [invAb] at 5' end, 3' end, backbone not given here; chain 2: sugars from the 5' end rrrmffmmfmmfmfmffffmm, backbone not given here)
% KD Human [1]: 83%
% KD Mouse [2]: 72%

25362-DC: STAT1 siNA duplex, human target site 222; modified strands SEQ ID NO: 61 and 62 (chain 1 CUCGAGAGCUGUCUAGGUUTT; chain 2 AACCUAGACAGCUCUCGAGUU; chain 1: DNA at AGT, 2'-fluoro at CU, [invAb] at 5' end, 3' end, backbone not given here; chain 2: sugars from the 5' end rrrffmmmfmmfffffmmmmm, backbone not given here)
% KD Human [1]: 87%
% KD Mouse [2]: 45%

25355-DC: STAT1 siNA duplex, human target site 1126; modified strands SEQ ID NO: 47 and 48 (chain 1 CUGCAGAACUGGUUCACUATT; chain 2 UAGUGAACCAGUUCUGCAGUU; chain 1: DNA at AGT, 2'-fluoro at CU, [invAb] at 5' end, 3' end, backbone not given here; chain 2: sugars from the 5' end rrrfmmmffmmffffmfmmmm, backbone not given here)
% KD Human [1]: 90%
% KD Mouse [2]: 35%

25361-DC: STAT1 siNA duplex, human target site 1104; modified strands SEQ ID NO: 59 and 60 (chain 1 GCCCAAUGCUUGCUUGGAUTT; chain 2 AUCCAAGCAAGCAUUGGGCUU; chain 1: DNA at AGT, 2'-fluoro at CU, [invAb] at 5' end, 3' end, backbone not given here; chain 2: sugars from the 5' end rrrfmmmfmmmfmffmmmfmm, backbone not given here)
% KD Human [1]: 92%
% KD Mouse [2]: 35%

25352-DC: STAT1 siNA duplex, human target site 540; modified strands SEQ ID NO: 41 and 42 (chain 1 GCUGGAUGAUCAAUAUAGUTT; chain 2 ACUAUAUUGAUCAUCCAGCUU; chain 1: DNA at AGT, 2'-fluoro at CU, [invAb] at 5' end, 3' end, backbone not given here; chain 2: sugars from the 5' end rrrmfmffmmffmfffmmfmm, backbone not given here)
% KD Human [1]: 91%
% KD Mouse [2]: 34%

25346-DC: STAT1 siNA duplex, human target site 837; modified strands SEQ ID NO: 29 and 30 (chain 1 CCUGGAAGAUUUACAAGAUTT; chain 2 AUCUUGUAAAUCUUCCAGGUU; chain 1: DNA at AGT, 2'-fluoro at CU, [invAb] at 5' end, 3' end, backbone not given here; chain 2: sugars from the 5' end rrrffmfmmmffffffmmmmm, backbone not given here)
% KD Human [1]: 62%
% KD Mouse [2]: 31%

25348-DC: STAT1 siNA duplex, human target site 746; modified strands SEQ ID NO: 33 and 34 (chain 1 GCACAGUGAUGUUAGACAATT; chain 2 UUGUCUAACAUCACUGUGCUU; chain 1: DNA at AGT, 2'-fluoro at CU, [invAb] at 5' end, 3' end, backbone not given here; chain 2: sugars from the 5' end rrrfffmmfmffmffmfmfmm, backbone not given here)
% KD Human [1]: 51%
% KD Mouse [2]: 37%

25358-DC: STAT1 siNA duplex, human target site 1020; modified strands SEQ ID NO: 53 and 54 (chain 1 CACUGAACUUACCCAGAAUTT; chain 2 AUUCUGGGUAAGUUCAGUGUU; chain 1: DNA at AGT, 2'-fluoro at CU, [invAb] at 5' end, 3' end, backbone not given here; chain 2: sugars from the 5' end rrrffmmmfmmmfffmmfmmm, backbone not given here)
% KD Human [1]: 79%
% KD Mouse [2]: 17%
